Laboratory results: patent US9539257B2, “Method of treating cancer” (NOVARTIS AG, priority 2009, dated 2017)

Assays:
[1] = previous reports; cited from earlier work

From the text for HLA-DQA1*0201: The confirmatory study also offered a means to evaluate the specificity of the lapatanib effect by assessment of the letrozole-only arm in the same trial.

SMILES | type of liver injury [1] | DQA1*0201 carriage in ALT cases (HLA-DQA1*0201; letrozole-only comparator treatment arm (3/11)) [%] | DQA1*0201 carriage in ALT controls (HLA-DQA1*0201; letrozole-only comparator treatment arm (40/159)) [%] | cumulative incidence of ALT elevation, DQA1*0201 carriers compared with non-carriers (HLA-DQA1*0201; letrozole-only treated patients, FIG. 3)
CC1(C)S[C@@H]2[C@H](NC(=O)[C@H](N)c3ccc(O)cc3)C(=O)N2[C@H]1C(=O)O [Amoxicillin] | cholestatic |  |  | 
Cc1onc(-c2c(F)cccc2Cl)c1C(=O)N[C@@H]1C(=O)N2[C@@H]1SC(C)(C)[C@@H]2C(=O)O [flucloxacillin] | cholestatic |  |  | 
N#Cc1ccc(C(c2ccc(C#N)cc2)n2cncn2)cc1 [letrozole, 4-[(4-cyanophenyl)-(1,2,4-triazol-1-yl)methyl]benzonitrile] |  | 27 | 25 | did not differ
